Measured values taken from PMC5983862, “Insight into small molecule binding to the neonatal Fc receptor by X-ray crystallography and 100 kHz magic-angle-spinning NMR” (PLoS Biology, 2018).
One block for each compound: values may come before it.

Key:
[1] = molecular target: T1, neonatal Fc receptor (FcRn) α-chain, extracellular domain (FcRnECD) (Homo sapiens, UniProt P55899+P61769); test: affinity measurement (SPR implied); type: binding
T1 construct: gene FCGRT; extracellular domain (ECD) (amino acids 1–297) of human FcRn α-chain, with human β2m; with β2-microglobulin (β2m, B2M)

[2] = molecular target: T1, neonatal Fc receptor (FcRn) α-chain, extracellular domain (FcRnECD); test: SPR Kd; X-ray crystal structure; […] CPMG and STD NMR fragment screen; type: binding
[3] = molecular target: T1, neonatal Fc receptor (FcRn) α-chain, extracellular domain (FcRnECD); test: SPR Kd; X-ray crystal structure; MAS NMR chemical-shift perturbations; type: binding
[4] = molecular target: soluble extracellular domain of the neonatal Fc receptor (FcRnECD), heterodimer of α-chain and β2m, from insect cells (human); test: crystal structure; FcRnECD from insect cells; crystals at pH 3 (PEG 6000, citric acid/ammonium citrate) and at pH 8.5 (Bis-Tris propane, NaI, PEG 3350); compounds soaked into pH 3 crystals; two heterodimers in the asymmetric unit

Kd [1]: 2400 nM
Compound: CC(=O)C1=C(C)Nc2ncnn2C1c1cc(F)cc(F)c1 (racemic) [1-[7-(3,5-Difluorophenyl)-5-methyl-4,7-dihydro-[1,2,4]triazolo[1,5-a]pyrimidin-6-yl]ethanone]

Kd [2]: ~80000 nM
Compound: CC(=O)C1=C(C)Nc2ncnn2C1c1cccc(F)c1 (racemic) [UCB-FcRn-84, 1-[7-(3-fluorophenyl)-5-methyl-4,7-dihydro-[1,2,4]triazolo[1,5-a]pyrimidin-6-yl]ethanone]

Kd [3]: 2400 nM
Compound: COC(=O)C1=C(c2cccnc2)Nc2ncnn2C1c1cc(F)cc(F)c1 (stereo not shown) [UCB-FcRn-303, Methyl 7-(3,5-difluorophenyl)-5-(3-pyridyl)-4,7-dihydro-[1,2,4]triazolo[1,5-a]pyrimidine-6-carboxylate]

stoichiometry N [4]: 2
Compound: soluble extracellular domain of the neonatal Fc receptor (FcRnECD), heterodimer of α-chain and β2m, from insect cells (complex)
